For five compounds, IC50 results are on record in ChEMBL document CHEMBL4715770, “Inhibition of Low Molecular Weight Protein Tyrosine Phosphatase by an Induced-Fit Mechanism” (J Med Chem, 2016).

pIC50: −log10 of the molar value. Some results are limits rather than exact numbers.

The pIC50 is the IC50 on a negative log10 scale, so that one unit is a factor of ten.

Assay [1] concerns the target T1, Receptor-type tyrosine-protein phosphatase C (Homo sapiens, UniProt P08575).
T1 sequence (P08575 whole entry): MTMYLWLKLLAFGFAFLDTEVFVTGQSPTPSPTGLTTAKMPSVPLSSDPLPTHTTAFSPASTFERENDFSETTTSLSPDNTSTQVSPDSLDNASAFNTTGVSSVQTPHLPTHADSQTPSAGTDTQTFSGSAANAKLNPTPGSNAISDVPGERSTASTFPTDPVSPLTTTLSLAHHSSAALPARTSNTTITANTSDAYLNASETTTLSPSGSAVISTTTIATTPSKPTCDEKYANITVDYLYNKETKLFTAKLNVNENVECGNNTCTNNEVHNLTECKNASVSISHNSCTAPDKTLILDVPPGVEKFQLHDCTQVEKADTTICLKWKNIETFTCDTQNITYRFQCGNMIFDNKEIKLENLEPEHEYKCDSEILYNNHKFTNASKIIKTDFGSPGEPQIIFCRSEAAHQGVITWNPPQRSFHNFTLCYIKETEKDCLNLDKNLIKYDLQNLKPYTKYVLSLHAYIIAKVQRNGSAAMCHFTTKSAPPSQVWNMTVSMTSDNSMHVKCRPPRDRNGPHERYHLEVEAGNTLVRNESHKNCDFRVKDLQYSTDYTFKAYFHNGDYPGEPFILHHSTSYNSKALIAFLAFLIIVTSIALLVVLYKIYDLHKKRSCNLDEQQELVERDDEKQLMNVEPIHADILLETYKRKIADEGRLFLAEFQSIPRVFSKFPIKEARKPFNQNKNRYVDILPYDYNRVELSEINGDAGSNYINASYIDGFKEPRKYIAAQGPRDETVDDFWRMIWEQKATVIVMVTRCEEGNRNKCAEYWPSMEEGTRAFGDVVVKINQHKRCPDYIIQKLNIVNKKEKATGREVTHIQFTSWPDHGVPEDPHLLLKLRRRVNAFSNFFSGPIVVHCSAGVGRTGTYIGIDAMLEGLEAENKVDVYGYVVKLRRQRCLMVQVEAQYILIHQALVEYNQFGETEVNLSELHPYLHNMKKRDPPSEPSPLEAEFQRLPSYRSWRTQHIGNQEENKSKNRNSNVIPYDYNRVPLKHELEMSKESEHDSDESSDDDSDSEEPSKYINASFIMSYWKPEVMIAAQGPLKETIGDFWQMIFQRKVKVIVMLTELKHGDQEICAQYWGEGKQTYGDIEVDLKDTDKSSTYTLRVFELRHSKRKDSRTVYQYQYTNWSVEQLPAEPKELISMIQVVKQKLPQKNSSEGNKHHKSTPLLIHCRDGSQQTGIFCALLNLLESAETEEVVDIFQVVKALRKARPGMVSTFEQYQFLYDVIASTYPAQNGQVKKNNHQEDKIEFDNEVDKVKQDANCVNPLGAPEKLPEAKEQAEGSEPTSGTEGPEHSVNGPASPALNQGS
The assay is described as follows: Inhibition of His-tagged CD45 (unknown origin) expressed in Escherichia coli BL21 cells using para-nitrophenyl phosphate as substrate incubated for 5 to 10 mins by microplate reader based spectrophotometric analysis.

The target of assay [2] is T2, Dual specificity protein phosphatase 6 (Homo sapiens, UniProt Q16828).
T2 sequence (Q16828 whole entry): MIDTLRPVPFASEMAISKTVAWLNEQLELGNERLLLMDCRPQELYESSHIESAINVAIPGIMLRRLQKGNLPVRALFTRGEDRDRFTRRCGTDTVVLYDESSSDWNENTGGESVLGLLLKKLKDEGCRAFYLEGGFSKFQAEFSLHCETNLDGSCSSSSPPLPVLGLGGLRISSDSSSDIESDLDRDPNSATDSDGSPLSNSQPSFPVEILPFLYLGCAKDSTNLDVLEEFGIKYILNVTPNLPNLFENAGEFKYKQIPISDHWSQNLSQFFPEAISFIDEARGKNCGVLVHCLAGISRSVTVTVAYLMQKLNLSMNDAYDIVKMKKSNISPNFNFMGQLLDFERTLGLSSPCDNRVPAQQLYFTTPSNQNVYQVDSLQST
The assay is described as follows: Inhibition of His-tagged MKP3 (unknown origin) expressed in Escherichia coli BL21 cells using para-nitrophenyl phosphate as substrate incubated for 5 to 10 mins by microplate reader based spectrophotometric analysis.

Assay [3] addresses T3, Tyrosine-protein phosphatase non-receptor type 7 (Homo sapiens, UniProt P35236).
T3 sequence (P35236 whole entry): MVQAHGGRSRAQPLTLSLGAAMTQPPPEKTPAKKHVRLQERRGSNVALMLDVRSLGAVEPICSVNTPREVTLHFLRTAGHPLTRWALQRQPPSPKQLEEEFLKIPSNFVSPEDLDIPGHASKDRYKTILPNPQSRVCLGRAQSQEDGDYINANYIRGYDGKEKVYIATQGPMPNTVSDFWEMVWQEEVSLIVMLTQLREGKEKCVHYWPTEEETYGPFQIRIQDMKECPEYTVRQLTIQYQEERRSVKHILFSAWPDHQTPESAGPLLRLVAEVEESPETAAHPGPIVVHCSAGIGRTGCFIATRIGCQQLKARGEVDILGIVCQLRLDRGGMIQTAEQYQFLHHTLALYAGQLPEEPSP
The assay is described as follows: Inhibition of His-tagged HePTP (unknown origin) expressed in Escherichia coli BL21 cells using para-nitrophenyl phosphate as substrate incubated for 5 to 10 mins by microplate reader based spectrophotometric analysis.

The target in assay [4] is T4, Tyrosine-protein phosphatase non-receptor type 11 (Homo sapiens, UniProt Q06124).
T4 sequence (Q06124 whole entry): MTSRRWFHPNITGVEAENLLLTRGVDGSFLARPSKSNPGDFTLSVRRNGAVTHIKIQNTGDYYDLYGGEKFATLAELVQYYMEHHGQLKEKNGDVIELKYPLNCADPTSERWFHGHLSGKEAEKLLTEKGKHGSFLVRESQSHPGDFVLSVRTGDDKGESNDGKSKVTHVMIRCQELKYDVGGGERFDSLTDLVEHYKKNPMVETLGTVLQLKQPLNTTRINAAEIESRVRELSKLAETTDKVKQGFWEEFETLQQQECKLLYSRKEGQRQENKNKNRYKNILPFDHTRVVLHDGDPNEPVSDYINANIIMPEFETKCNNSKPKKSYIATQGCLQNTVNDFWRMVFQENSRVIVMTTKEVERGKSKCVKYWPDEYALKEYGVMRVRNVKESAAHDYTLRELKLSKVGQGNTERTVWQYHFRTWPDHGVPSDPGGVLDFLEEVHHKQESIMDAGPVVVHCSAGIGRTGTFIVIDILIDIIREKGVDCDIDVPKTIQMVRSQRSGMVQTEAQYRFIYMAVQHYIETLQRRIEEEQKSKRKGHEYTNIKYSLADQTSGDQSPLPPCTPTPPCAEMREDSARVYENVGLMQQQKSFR
The assay is described as follows: Inhibition of His-tagged SHP2 (unknown origin) expressed in Escherichia coli BL21 cells using para-nitrophenyl phosphate as substrate incubated for 5 to 10 mins by microplate reader based spectrophotometric analysis.

The target of assay [5] is Dual specificity protein phosphatase 3 (Homo sapiens, UniProt P51452). Nature of the assay: Inhibition of His-tagged VHR (unknown origin) expressed in Escherichia coli BL21 cells using para-nitrophenyl phosphate as substrate incubated for 5 to 10 mins by microplate reader based spectrophotometric analysis.
Sequence of Dual specificity protein phosphatase 3 (P51452 whole entry): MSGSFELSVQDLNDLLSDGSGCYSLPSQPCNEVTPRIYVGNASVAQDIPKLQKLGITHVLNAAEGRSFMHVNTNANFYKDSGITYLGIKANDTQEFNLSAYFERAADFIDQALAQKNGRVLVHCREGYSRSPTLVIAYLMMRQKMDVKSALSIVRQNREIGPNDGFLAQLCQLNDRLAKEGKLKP

`O=C(Nc1ccc(OCc2ccccc2)c(Cl)c1)C(c1ccccc1)S(=O)(=O)O` (stereo not drawn): the negative-log IC50 (pIC50) in assay [1], in assay [2] and in assay [3] was below 3.70 each time.

For the compound `O=C(Nc1cc(C(F)(F)F)cc(C(F)(F)F)c1)C(c1ccccc1)S(=O)(=O)O` (stereo not drawn), the negative-log IC50 (pIC50) in assay [1] was below 3.70; in assay [4], below 3.70; in assay [2], below 3.70; in assay [5] it was below 3.70; in assay [3], 4.03.

`O=C(Nc1ccc(-n2ccnc2)cc1)C(c1ccccc1)S(=O)(=O)O` (stereo not drawn): the pIC50 in assay [1], in assay [4], in assay [2], in assay [5] and in assay [3] was below 4.00 throughout.

For `Cc1c(Br)cc(NC(=O)C(c2ccccc2)S(=O)(=O)O)cc1Br` (stereo not drawn), the pIC50 in assay [1], in assay [4], in assay [2], in assay [5] and in assay [3] was below 3.70 each time.

Turning to `O=C(Nc1nc2ccc([N+](=O)[O-])cc2s1)C(c1ccccc1)S(=O)(=O)O` (stereo not drawn), the pIC50 in assay [1], in assay [4], in assay [2], in assay [5] and in assay [3] was below 4.00 each time.
